SMILES strings stand for the structures.

The test system of test [1] is HCC1954. The test can be described thus: Antitumor activity against human HCC1954 cells xenografted in NCR nude mouse model assessed as tumor growth inhibition at 25 mg/kg via oral gavage administered for 28 days in presence of trastuzumab/pertuzumab by caliper method. Particulars: HCC1954, 672 h, time 28 day, read-out: TGI. In kind it is functional. A general note: A xenograft is tissue or cells of one species grown in another, often human tumour cells in immunodeficient mice.

Test [2] deals with HCC1954. The test can be described thus: Antitumor activity against human HCC1954 cells xenografted in NCR nude mouse model assessed as tumor growth inhibition at 25 mg/kg via oral gavage administered for 28 days by caliper method. In kind it is functional. Particulars: HCC1954, 672 h, time 28 day, read-out: TGI.

With `C[C@H](Nc1ccc2c(c1)OCCn1cc(N3C(=O)OC[C@H]3C(F)F)nc1-2)C(N)=O` [INAVOLISIB], the figures for the inhibition in vivo at 25 mg/kg with HCC1954 [1] and with HCC1954 [2] were 148% and 122%, respectively.

These data come from ChEMBL document CHEMBL5252621, “Effective Combination Therapies for the Treatment of HER2 Cancer” (2023).
